According to patent publication US7691816B2, “Pharmaceutical compositions” (Renovo Ltd., priority 2005, dated 2010):

Assay: Localised pain and erythema associated with intradermal injection of formulations
Format: in vivo, human
Procedure: A study was conducted to evaluate localised pain and erythema associated with intradermal injection of medicaments manufactured in accordance with the invention and the pain and erythema associated with control injections of prior art compositions.
Experimental injectable solutions were prepared as described above.
Briefly, a volume of 100 μL of each formulation described above was injected intradermally into the inner aspect of the upper arms of a volunteer. In addition to the DS11 control described above, a solution of the known local anaesthetic lignocaine was also used as a further control. The pain on injection and erythema were categorised by the volunteer and a clinician.
Both the volunteer and the clinician undertook these evaluations. The extent of pain or erythema associated with the different formulations used was rated based upon the following categories (listed in ascending severity): […]

[1] = Volunteer 1, 100 μL intradermal, inner aspect of upper arm
[2] = Volunteer 2, 100 μL intradermal, inner aspect of upper arm

| Compound | Erythema (Table 4, summary of Table 3) | Pain (Table 4, summary of Table 3) | Erythema [1] | Pain [1] | Erythema [2] | Pain [2] | Pain (in vivo) |
| --- | --- | --- | --- | --- | --- | --- | --- |
| CCN(CC)CC(=O)Nc1c(C)cccc1C [Lignocaine, lignocaine] | Marked | Marked | Marked | Marked | Marked | Marked | – |
| Glucose | – | – | – | – | – | – | None |
